The record followed here is ChEMBL document CHEMBL4715788, “Hit-to-Lead Optimization of Mouse Trace Amine Associated Receptor 1 (mTAAR1) Agonists with a Diphenylmethane-Scaffold: Design, Synthesis, and Biological Study” (J Med Chem, 2016).

In general, EC50 refers to the concentration giving half of the maximal effect.

Activity calls are given as the source filed them. No cut-off for these calls is given here.

Assay [1] relates to HepG2. Kind of assay: Hyperglycemic activity in human HepG2 cells incubated for 4 hrs by colorimetric glucose assay. To be noted: HepG2, 4 h. The format is functional, cell-based.
For assay [2], the target named is Trace amine-associated receptor 1 (Mus musculus, UniProt Q923Y8). Briefly: Agonist activity at mouse TAAR1 expressed in HEK293T cells assessed as induction of cAMP production by BRET assay. It counts as functional, cell-based. A general note: Cyclic AMP is a second messenger, typically raised through Gs and lowered through Gi signalling.
In assay [3] the test system is Mus musculus. Kind of assay: Increase in plasma glycaemia in CD1 mouse at 4.0 ug/kg, ip measured after 15 mins. It counts as functional, organism-based.
Assay [4] has as its target Trace amine-associated receptor 1 (Mus musculus) (UniProt Q923Y8). Briefly: Agonist activity at mouse TAAR1 expressed in HEK293T cells assessed as induction of cAMP production by BRET assay relative to control. It counts as functional, cell-based. The conditions noted are these: filed as agonist.
The subject of assay [5] is HepG2. Kind of assay: Inhibition of glucose production in human HepG2 cells at 10 uM incubated for 4 hrs by colorimetric glucose assay. It counts as functional, cell-based.
Assay [6] relates to HepG2. Briefly: Increase in glucose production in human HepG2 cells at 0.1 to 1 uM incubated for 4 hrs by colorimetric glucose assay. The format is functional, cell-based. To be noted: dose 0.1-1 µM.
Assay [7] relates to HepG2. Briefly: Increase in glucose production in human HepG2 cells at incubated for 4 hrs by colorimetric glucose assay. The format is functional, cell-based.

Trace amine-associated receptor 1, sequence (Q923Y8 whole entry): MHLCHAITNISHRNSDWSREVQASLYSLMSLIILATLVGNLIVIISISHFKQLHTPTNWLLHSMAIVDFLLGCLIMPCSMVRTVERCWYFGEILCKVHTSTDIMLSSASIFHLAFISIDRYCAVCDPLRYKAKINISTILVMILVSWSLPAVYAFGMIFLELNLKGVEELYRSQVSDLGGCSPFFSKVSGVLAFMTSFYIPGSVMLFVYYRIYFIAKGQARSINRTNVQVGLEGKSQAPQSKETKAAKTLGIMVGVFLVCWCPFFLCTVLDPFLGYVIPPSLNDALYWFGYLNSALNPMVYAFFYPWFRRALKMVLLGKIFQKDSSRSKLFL
Trace amine-associated receptor 1 (Mus musculus), sequence (Q923Y8 whole entry): as above

As for `NCCc1ccc(Oc2ccc(O)cc2)c(I)c1`, the EC50 in assay [1] was found to be 840 nM.

On to `Cc1cc(OCCNC(=N)NC(=N)N)ccc1Cc1ccc(N)cc1`, for which, in assay [2], the EC50 is more than 10000 nM.

Consider `Cc1cc(CCN)ccc1Cc1ccc(O)cc1`, for which the result in assay [3] and in assay [6] was Active. Further, in assay [4], the Efficacy stood at 100%. Moreover, the EC50 in assay [2] worked out at 98 nM. In addition, the inhibition entry in assay [5] was “Active”.

With `CC(=O)Nc1ccc(Cc2ccc(OCCNC(=N)NC(=N)N)cc2C)cc1`, the EC50 in assay [2] is more than 10000 nM.

For `CC(=O)Nc1ccc(Cc2ccc(OCCN)cc2C)cc1`, in assay [2], the EC50 was more than 10000 nM.

Take `Cc1cc(CCN)cc(C)c1Cc1ccc(N)cc1`: the Efficacy in assay [4] is 100%. The EC50 in assay [2] was determined as 158 nM.

Regarding `CC(=O)Nc1ccc(Cc2ccc(CCN)cc2C)cc1`, the Efficacy in assay [4] was found to be 100%. For the same compound, the EC50 in assay [2] turned out to be 3100 nM.

In the case of `Cc1cc(OCCN)cc(C)c1Cc1ccc(N)cc1`, in assay [4], the Efficacy came to 100%. The EC50 in assay [2] stood at 134 nM.

`CCN(C(C)=O)c1ccc(Cc2ccc(CCNC(C)=O)cc2C)cc1C(C)C`: the Efficacy in assay [4] was found to be 100%. For the same compound, the EC50 in assay [2] is more than 10000 nM.

`CCNc1ccc(Cc2ccc(CCN)cc2C)cc1C(C)C`: in assay [4], the Efficacy is 100%. Besides, the EC50 in assay [2] is 102 nM.

Turning to `CC(=O)NCCOc1ccc(Cc2ccc(NC(C)=O)cc2)cc1`, in assay [2], the EC50 was more than 10000 nM.

Take `CC(=O)Nc1ccc(Cc2ccc(OCCN)cc2)cc1`: the EC50 in assay [2] was more than 10000 nM.

`Cc1cc(CCN)ccc1-c1ccc(N)cc1`: the Efficacy in assay [4] was found to be 100%. Moreover, the EC50 in assay [2] turned out to be 1180 nM.

As for `CC(=O)NCCOc1ccc(Cc2ccc(NC(C)=O)cc2)c(C)c1`, in assay [2], the EC50 is more than 10000 nM.

As for `CCN(C(C)=O)c1ccc(Cc2ccc(CCN)cc2C)cc1C(C)C`, the Efficacy in assay [4] was 100%. In assay [2], the EC50 came to 440 nM.

Turning to `Cc1cc(CCN)ccc1Cc1ccc(N)cc1`, in assay [3], the result was Active. Moreover, in assay [7], the Activity entry is “Dose-dependent effect”. Moreover, the Efficacy in assay [4] turned out to be 100%. In addition, the EC50 in assay [2] is 119 nM.

For the compound `Cc1cc(CCN)cc(C)c1-c1ccc(N)cc1`, the Efficacy in assay [4] is 100%. Besides, in assay [2], the EC50 came to 633 nM.
